Test results taken from patent US11492335B2, “Aryl or heteroaryl triazolone derivatives or salts thereof, or pharmaceutical compositions comprising the same” (YUHAN CORPORATION, priority 2018, dated 2022).
Counter-ions that a name gives are not always drawn. Like-named read-outs stand apart in the source and are kept apart here.

Tests used:
Type in all cases: biochemical
[1] = target: T1, recombinant human VAP-1 (Homo sapiens, UniProt Q16853); experiment: Activity on recombinant human VAP-1, Amplex Red HRP-coupled hydrogen peroxide assay, benzylamine substrate; conditions: recombinant human VAP-1, benzylamine substrate, read-out: Inhibitory Activity (IC50, nM) human VAP-1
T1 construct: purchased R&D systems
T1 sequence (Q16853 1-763): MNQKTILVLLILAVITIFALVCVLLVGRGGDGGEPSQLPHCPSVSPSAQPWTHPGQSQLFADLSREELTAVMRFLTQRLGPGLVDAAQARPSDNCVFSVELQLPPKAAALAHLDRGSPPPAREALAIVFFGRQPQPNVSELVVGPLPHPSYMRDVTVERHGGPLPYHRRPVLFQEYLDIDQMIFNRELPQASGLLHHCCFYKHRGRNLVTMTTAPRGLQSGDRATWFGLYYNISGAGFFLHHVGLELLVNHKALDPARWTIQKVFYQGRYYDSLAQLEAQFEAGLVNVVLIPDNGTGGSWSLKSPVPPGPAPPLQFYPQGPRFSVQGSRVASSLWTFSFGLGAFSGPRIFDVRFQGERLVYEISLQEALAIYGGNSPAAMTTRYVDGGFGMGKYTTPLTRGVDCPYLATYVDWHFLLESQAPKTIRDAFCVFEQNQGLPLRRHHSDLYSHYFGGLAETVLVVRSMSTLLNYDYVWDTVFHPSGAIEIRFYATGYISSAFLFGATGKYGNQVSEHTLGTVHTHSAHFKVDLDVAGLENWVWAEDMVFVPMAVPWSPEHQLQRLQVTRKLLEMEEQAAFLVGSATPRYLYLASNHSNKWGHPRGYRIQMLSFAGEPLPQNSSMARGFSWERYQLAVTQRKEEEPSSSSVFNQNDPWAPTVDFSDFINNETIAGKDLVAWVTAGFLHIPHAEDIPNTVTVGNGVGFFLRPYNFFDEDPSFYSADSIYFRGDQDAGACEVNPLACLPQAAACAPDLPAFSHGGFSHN
Summary of the method: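 Fluorescence of resorufin formed from H2O2 (ex 544 nm, em 590 nm) was tracked for 1-2 h after adding 1 mM benzylamine, 200 uM Amplex Red and 1 U/mL HRP to enzyme pretreated with compound for 30 min at 37 °C. IC50 values derive from four-variable logistic fits.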

[2] = target: T2, recombinant human MAO-A (monoamine oxidase-A) (Homo sapiens, UniProt P21397); experiment: Activity on recombinant human MAO-A, Amplex Red method, 0.5 mM tyramine substrate; conditions: read-out: Inhibitory Activity (IC50, nM) MAO-A
T2 construct: purchased Sigma-Aldrich
T2 sequence (P21397 1-527): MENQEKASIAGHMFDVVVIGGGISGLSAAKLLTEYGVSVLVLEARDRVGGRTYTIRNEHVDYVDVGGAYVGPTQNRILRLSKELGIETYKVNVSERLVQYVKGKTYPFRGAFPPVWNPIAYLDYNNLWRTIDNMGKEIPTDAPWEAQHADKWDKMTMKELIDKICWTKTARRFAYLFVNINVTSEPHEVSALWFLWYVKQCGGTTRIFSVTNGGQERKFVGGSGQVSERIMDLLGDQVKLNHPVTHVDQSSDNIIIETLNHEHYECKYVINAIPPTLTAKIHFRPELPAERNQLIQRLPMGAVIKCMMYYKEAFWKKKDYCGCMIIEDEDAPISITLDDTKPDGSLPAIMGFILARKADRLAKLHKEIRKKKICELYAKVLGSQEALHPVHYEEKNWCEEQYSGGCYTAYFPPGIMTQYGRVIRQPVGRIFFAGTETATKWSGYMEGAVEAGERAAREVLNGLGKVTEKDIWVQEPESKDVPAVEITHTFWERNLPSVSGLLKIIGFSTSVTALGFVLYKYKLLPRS
Summary of the method: (§1)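 Fluorescence (544/590 nm) of resorufin formed from Amplex Red by HRP and enzyme-generated H2O2 was followed over 1-2 h. Substrates were 0.5 mM tyramine for MAO-A and 1 mM benzylamine for MAO-B; compounds were preincubated with enzyme for 30 min at 37° C. IC50 came from four-parameter logistic fitting of signal-rate inhibition.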

[3] = target: T3, recombinant human MAO-B (monoamine oxidase-B) (Homo sapiens, UniProt P27338); experiment: Activity on recombinant human MAO-B, Amplex Red method, 1 mM benzylamine substrate; conditions: read-out: Inhibitory Activity (IC50, nM) MAO-B
T3 construct: purchased Sigma-Aldrich
T3 sequence (P27338 1-520): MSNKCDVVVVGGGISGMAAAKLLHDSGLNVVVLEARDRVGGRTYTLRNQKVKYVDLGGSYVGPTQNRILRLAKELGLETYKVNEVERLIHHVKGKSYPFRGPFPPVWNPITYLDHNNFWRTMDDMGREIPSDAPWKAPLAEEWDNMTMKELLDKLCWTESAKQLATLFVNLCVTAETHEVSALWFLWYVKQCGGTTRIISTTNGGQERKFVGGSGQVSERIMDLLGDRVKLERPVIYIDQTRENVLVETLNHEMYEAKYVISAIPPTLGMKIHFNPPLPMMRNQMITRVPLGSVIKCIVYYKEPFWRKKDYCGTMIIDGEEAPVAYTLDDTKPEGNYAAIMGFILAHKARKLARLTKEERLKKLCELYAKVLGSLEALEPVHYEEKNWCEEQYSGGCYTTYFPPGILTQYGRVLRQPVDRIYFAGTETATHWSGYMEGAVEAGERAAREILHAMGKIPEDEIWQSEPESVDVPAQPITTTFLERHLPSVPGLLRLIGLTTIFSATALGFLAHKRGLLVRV
Summary of the method: as §1

[4] = target: T4, recombinant human DAO (diamine oxidase) (Homo sapiens, UniProt P19801); experiment: Activity on recombinant human DAO, Amplex Red method, 1 mM putrescine substrate; conditions: recombinant human DAO, read-out: Inhibitory Activity (IC50, nM) DAO
T4 construct: purchased R&D systems
T4 sequence (P19801 20-751): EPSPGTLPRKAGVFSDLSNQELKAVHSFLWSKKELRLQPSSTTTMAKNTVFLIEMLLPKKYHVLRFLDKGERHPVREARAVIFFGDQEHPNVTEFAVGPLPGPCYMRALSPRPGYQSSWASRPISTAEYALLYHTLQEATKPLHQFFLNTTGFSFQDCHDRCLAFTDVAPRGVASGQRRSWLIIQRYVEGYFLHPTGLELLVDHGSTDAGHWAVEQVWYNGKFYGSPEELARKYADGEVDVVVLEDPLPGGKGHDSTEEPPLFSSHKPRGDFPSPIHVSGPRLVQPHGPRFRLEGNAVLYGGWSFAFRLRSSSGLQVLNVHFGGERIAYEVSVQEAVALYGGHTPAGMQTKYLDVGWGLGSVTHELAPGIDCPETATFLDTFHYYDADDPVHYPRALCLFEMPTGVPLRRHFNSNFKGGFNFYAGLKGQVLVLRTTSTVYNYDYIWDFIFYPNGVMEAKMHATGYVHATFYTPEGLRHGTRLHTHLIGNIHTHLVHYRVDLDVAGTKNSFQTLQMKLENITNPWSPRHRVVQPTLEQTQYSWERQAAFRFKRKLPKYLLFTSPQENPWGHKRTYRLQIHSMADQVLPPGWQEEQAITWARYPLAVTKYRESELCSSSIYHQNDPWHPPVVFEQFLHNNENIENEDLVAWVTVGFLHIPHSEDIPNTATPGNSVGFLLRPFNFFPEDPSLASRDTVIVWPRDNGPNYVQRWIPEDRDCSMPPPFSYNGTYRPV
Summary of the method: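 Inhibition of recombinant human DAO (diamine oxidase, R&D systems) was assessed with the Amplex Red Hydrogen Peroxide Assay Kit. Hydrogen peroxide produced from 1 mM putrescine was detected through an HRP-coupled reaction that converts Amplex Red into fluorescent resorufin, read at 544 nm excitation and 590 nm emission. IC50 values came from four-parameter logistic fits in GraphPad Prism.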

[5] = 1 mM putrescine, * = between 10 and 100 nM, ** = between 300 and 1000 nM

Row | Structure (SMILES) | IC50 ([1]; 30 min preincubation at 37° C.) [nM] | IC50 ([2]; 0.5 mM tyramine) [nM] | IC50 ([3]; 1 mM benzylamine) [nM] | IC50 [4, 5] [nM] | IC50 [1] [nM] | IC50 ([2]; 0.5 mM tyramine substrate) [nM] | IC50 ([3]; 1 mM benzylamine substrate) [nM] | IC50 ([4]; 1 mM putrescine substrate) [nM]
1 | Cc1cc(-c2ccc(-c3ncon3)cc2)cnc1-n1cnn(C/C(=C/F)CN)c1=O [Example 139, 2-[(2E)-2-(aminomethyl)-3-fluoroprop-2-en-1-yl]-4-{3-methyl-5-[4-(1,2,4-oxadiazol-3-yl)phenyl]pyridin-2-yl}-2,4-dihydro-3H-1,2,4-triazol-3-one] | 0.53 | > 100000 | 394 | 370 |  |  |  | 
2 | Cc1cc(-c2ccc(N3CCOCC3)nc2)ncc1-n1cnn(C/C(=C/F)CN)c1=O [Example 124, 2-[(2E)-2-(aminomethyl)-3-fluoroprop-2-en-1-yl]-4-[4-methyl-6′-(morpholin-4-yl)-2,3′-bipyridin-5-yl]-2,4-dihydro-3H-1,2,4-triazol-3-one] | 0.89 | > 100000 | > 10000 | < 100 |  |  |  | 
3 | NC/C(=C/F)Cn1ncn(-c2ccc(Br)cn2)c1=O [Example 29, 2-[(2Z)-2-(aminomethyl)-3-fluoroprop-2-en-1-yl]-4-(5-bromopyridin-2-yl)-2,4-dihydro-3H-1,2,4-triazol-3-one hydrochloride] | 1.2 | 2600 | 28 | 25 |  |  |  | 
4 | NC/C(=C\F)Cn1ncn(-c2cccc(-c3ccc(-c4noc(C5CC5)n4)cc3)c2)c1=O [Example 63, 2-[(2E)-2-(aminomethyl)-3-fluoroprop-2-en-1-yl]-4-[4′-(5-cyclopropyl-1,2,4-oxadiazol-3-yl)biphenyl-3-yl]-2,4-dihydro-3H-1,2,4-triazol-3-one hydrochloride] | 1 | > 100000 | > 10000 | < 30 |  |  |  | 
5 | Cc1cc(-c2cccc(-n3cnn(C/C(=C/F)CN)c3=O)n2)cnc1F [Example 190, 2-[(2E)-2-(aminomethyl)-3-fluoroprop-2-en-1-yl]-4-(6′-fluoro-5′-methyl-2,3′-bipyridin-6-yl)-2,4-dihydro-3H-1,2,4-triazol-3-one hydrochloride] |  |  |  |  | 0.6 | > 100000 | 190 | 5
6 | NC/C(=C\F)Cn1ncn(-c2cccc(-c3ccc4c(c3)OCCO4)n2)c1=O [Example 194, 2-[(2E)-2-(aminomethyl)-3-fluoroprop-2-en-1-yl]-4-[6-(2,3-dihydro-1,4-benzodioxin-6-yl)pyridin-2-yl]-2,4-dihydro-3H-1,2,4-triazol-3-one] |  |  |  |  | 1.2 | > 100000 | 2710 | 2.9
7 | CC(=O)Nc1cc(-c2cc(C)c(-n3cnn(C/C(=C/F)CN)c3=O)cn2)ccn1 [Example 123, N-(5-{1-[(2E)-2-(aminomethyl)-3-fluoroprop-2-en-1-yl]-5-oxo-1,5-dihydro-4H-1,2,4-triazol-4-yl}-4-methyl-2,4′-bipyridin-2′-yl)acetamide] | 1.3 | > 100000 | 3220 | < 100 |  |  |  | 
8 | NC/C(=C\F)Cn1ncn(-c2cccc(-c3ccc4sc(N)nc4c3)n2)c1=O [Example 196, 4-[6-(2-amino-1,3-benzothiazol-5-yl)pyridin-2-yl]-2-[(2E)-2-(aminomethyl)-3-fluoroprop-2-en-1-yl]-2,4-dihydro-3H-1,2,4-triazol-3-one] |  |  |  |  | 1.1 | > 100000 | > 10000 | 11
9 | NC/C(=C\F)Cn1ncn(-c2ccc(F)c(F)c2)c1=O [Example 10, 2-[(2E)-2-(aminomethyl)-3-fluoroprop-2-en-1-yl]-4-(3,4-difluorophenyl)-2,4-dihydro-3H-1,2,4-triazol-3-one hydrochloride] | 2.4 | > 100000 | 1610 | 100 |  |  |  | 
10 | CN(C)S(=O)(=O)c1ccc(-c2cccc(-n3cnn(C/C(=C/F)CN)c3=O)c2)cc1 [Example 55, 3′-{1-[(2E)-2-(aminomethyl)-3-fluoroprop-2-en-1-yl]-5-oxo-1,5-dihydro-4H-1,2,4-triazol-4-yl}-N,N-dimethylbiphenyl-4-sulfonamide hydrochloride] | 0.3 | > 100000 | 1500 | 1 |  |  |  | 
11 | NC/C(=C\F)Cn1ncn(-c2ccc(Br)c(F)c2)c1=O [Example 14, 2-[(2E)-2-(aminomethyl)-3-fluoroprop-2-en-1-yl]-4-(4-bromo-3-fluorophenyl)-2,4-dihydro-3H-1,2,4-triazol-3-one hydrochloride] | 0.96 | 5200 | 35 | 38 |  |  |  | 
12 | NC/C(=C/F)Cn1ncn(-c2ccc(Br)nc2)c1=O [Example 24, 2-[(2Z)-2-(aminomethyl)-3-fluoroprop-2-en-1-yl]-4-(6-bromopyridin-3-yl)-2,4-dihydro-3H-1,2,4-triazol-3-one] | 4.6 | 6600 | 17 | 26 |  |  |  | 
